ChEMBL document CHEMBL4819140, “A novel GSK-3 inhibitor binds to GSK-3β via a reversible, time and Cys-199-dependent mechanism” (Bioorg Med Chem, 2021)
Activity calls are given as the source filed them. The rule behind the calls is not given here.

Columns and labels:
[1] = target: T1, Glycogen synthase kinase-3 beta (Homo sapiens, UniProt P49841); conditions: dose 400.0 nM, time 4.5 hrs
Target sequence in this assay (P49841 whole entry, looked up): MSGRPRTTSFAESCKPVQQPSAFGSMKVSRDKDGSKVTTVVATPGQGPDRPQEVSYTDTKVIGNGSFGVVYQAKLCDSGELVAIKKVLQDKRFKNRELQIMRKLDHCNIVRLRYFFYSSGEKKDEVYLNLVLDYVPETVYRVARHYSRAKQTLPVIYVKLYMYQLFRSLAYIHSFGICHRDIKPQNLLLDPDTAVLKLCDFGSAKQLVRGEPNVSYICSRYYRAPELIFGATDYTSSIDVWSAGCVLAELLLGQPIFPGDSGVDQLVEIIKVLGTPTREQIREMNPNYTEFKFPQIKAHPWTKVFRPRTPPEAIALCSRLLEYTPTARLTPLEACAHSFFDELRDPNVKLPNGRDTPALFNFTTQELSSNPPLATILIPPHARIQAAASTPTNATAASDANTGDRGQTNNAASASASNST

[2] = target: Dual specificity mitogen-activated protein kinase kinase 3 (Homo sapiens) (UniProt P46734); test: Inhibition of human recombinant MAP2K3 by Lanthascreen assay; conditions: concentration not given here
[3] = target: Serine/threonine-protein kinase D2 (Homo sapiens) (UniProt Q9BZL6); test: Inhibition of human recombinant PKD2 in presence of ATP by Z-lyte kinase assay; conditions: concentration not given here
[4] = target: T1, Glycogen synthase kinase-3 beta; test: Inhibition of human recombinant GSK3B in presence of ATP by Z-lyte kinase assay; conditions: concentration not given here
Target sequence in this assay (P49841 whole entry, looked up): as above

[5] = target: Ribosomal protein S6 kinase alpha-3 (Homo sapiens) (UniProt P51812); test: Inhibition of human recombinant RSK2 in presence of ATP by Z-lyte kinase assay; conditions: concentration not given here
[6] = target: Mitogen-activated protein kinase 3 (Homo sapiens) (UniProt P27361); test: Inhibition of human recombinant MAPK3 in presence of ATP by Z-lyte kinase assay; conditions: concentration not given here
[7] = target: T1, Glycogen synthase kinase-3 beta; conditions: dose 700.0 nM
Target sequence in this assay (P49841 whole entry, looked up): as above
Description: Reversible inhibition of recombinant human GSK-3beta at 700 nM incubated with substrate and ATP master mix solution by jump dilution assays

[8] = target: Mast/stem cell growth factor receptor Kit (Homo sapiens) (UniProt P10721); test: Inhibition of human recombinant KIT in presence of ATP by Z-lyte kinase assay; conditions: concentration not given here
[9] = target: T1, Glycogen synthase kinase-3 beta; conditions: dose 200.0 nM
Target sequence in this assay (P49841 whole entry, looked up): as above

[10] = target: MAP kinase-activated protein kinase 5 (Homo sapiens) (UniProt Q8IW41); test: Inhibition of human recombinant PRAK in presence of ATP by Z-lyte kinase assay; conditions: concentration not given here
[11] = target: T1, Glycogen synthase kinase-3 beta; test: Inhibition of human GSK-3beta assessed as decrease in relative fluorescence unit measured upto 60 mins by kinase-profiling analysis; conditions: time min <=60, TDE = time-dependent effect
Target sequence in this assay (P49841 whole entry, looked up): as above

[12] = target: T1, Glycogen synthase kinase-3 beta; test: Inhibition of human GSK-3beta preincubated for 3 hrs followed by ATP and substrate addition measured by serial dilution assay
Target sequence in this assay (P49841 whole entry): as the sequence (P49841 whole entry, looked up) above

[13] = target: MAP kinase-interacting serine/threonine-protein kinase 1 (Homo sapiens) (UniProt Q9BUB5); test: Inhibition of human recombinant MNK1 in presence of ATP by Z-lyte kinase assay; conditions: concentration not given here
Sequence of MAP kinase-interacting serine/threonine-protein kinase 1 (Homo sapiens) (Q9BUB5 whole entry, looked up): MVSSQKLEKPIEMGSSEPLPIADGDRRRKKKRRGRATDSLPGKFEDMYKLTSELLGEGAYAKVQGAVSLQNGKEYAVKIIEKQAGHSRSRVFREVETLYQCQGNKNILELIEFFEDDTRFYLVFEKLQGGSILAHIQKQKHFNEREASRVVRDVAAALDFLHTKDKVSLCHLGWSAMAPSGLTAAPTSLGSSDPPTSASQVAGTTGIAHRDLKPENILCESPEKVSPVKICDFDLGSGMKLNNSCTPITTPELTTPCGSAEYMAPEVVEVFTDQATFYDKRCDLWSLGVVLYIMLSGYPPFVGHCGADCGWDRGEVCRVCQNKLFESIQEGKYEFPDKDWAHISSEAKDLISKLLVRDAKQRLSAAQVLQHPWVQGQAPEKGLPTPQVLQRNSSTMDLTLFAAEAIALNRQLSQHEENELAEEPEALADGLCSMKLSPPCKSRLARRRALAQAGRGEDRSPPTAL

[14] = target: MAP kinase-interacting serine/threonine-protein kinase 2 (Homo sapiens) (UniProt Q9HBH9); test: Inhibition of human recombinant MNK2 by Lanthascreen assay; conditions: concentration not given here
Sequence of MAP kinase-interacting serine/threonine-protein kinase 2 (Homo sapiens) (Q9HBH9 whole entry, looked up): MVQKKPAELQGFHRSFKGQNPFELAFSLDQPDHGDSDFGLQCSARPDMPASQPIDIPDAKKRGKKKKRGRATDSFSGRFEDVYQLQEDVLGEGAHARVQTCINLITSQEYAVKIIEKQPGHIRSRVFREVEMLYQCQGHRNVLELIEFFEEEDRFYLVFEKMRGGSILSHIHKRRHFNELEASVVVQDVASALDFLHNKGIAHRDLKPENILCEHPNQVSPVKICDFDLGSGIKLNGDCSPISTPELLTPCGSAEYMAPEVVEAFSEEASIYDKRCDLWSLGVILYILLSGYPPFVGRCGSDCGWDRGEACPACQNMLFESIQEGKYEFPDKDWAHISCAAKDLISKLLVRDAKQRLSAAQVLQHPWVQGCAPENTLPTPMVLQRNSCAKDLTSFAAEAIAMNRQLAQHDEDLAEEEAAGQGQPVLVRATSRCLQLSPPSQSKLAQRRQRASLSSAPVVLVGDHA

[15] = target: AP2-associated protein kinase 1 (Homo sapiens) (UniProt Q2M2I8); test: Inhibition of human recombinant AAK1 by Lanthascreen assay; conditions: concentration not given here
[16] = target: T1, Glycogen synthase kinase-3 beta; test: Reversible inhibition of recombinant human GSK-3beta at 10 uM preincubated for 3 hrs followed by diluted with substrate and ATP master mix solution measured upto 1.5 hrs by jump dilution assays; conditions: time 4.5 hrs, TDE = time-dependent effect
Target sequence in this assay (P49841 whole entry, looked up): as the sequence (P49841 whole entry, looked up) above

[17] = target: Mitogen-activated protein kinase 15 (Homo sapiens) (UniProt Q8TD08); test: Inhibition of human recombinant MAPK15 by Lanthascreen assay; conditions: concentration not given here
[18] = target: Ribosomal protein S6 kinase alpha-6 (Homo sapiens) (UniProt Q9UK32); test: Inhibition of human recombinant RSK4 in presence of ATP by Z-lyte kinase assay; conditions: concentration not given here
[19] = target: Dual specificity mitogen-activated protein kinase kinase 2 (Homo sapiens) (UniProt P36507); test: Inhibition of human recombinant MAP2K2 in presence of 100 uM ATP by Z-lyte kinase assay
Sequence of Dual specificity mitogen-activated protein kinase kinase 2 (Homo sapiens) (P36507 whole entry): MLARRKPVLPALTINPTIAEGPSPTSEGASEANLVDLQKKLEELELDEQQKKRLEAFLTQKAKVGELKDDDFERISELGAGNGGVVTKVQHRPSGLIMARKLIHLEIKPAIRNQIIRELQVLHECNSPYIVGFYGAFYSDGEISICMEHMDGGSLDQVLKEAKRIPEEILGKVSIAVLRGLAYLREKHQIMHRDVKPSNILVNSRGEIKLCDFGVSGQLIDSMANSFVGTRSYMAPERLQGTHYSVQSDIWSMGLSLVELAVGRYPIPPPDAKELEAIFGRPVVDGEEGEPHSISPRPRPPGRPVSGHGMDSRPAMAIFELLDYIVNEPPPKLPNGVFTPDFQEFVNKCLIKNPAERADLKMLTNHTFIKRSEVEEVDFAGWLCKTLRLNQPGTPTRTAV

[20] = target: Platelet-derived growth factor receptor beta (Homo sapiens) (UniProt P09619); test: Inhibition of human recombinant PDGFRB in presence of ATP by Z-lyte kinase assay; conditions: concentration not given here
[21] = target: Ribosomal protein S6 kinase alpha-1 (Homo sapiens) (UniProt Q15418); test: Inhibition of human recombinant RSK1 in presence of ATP by Z-lyte kinase assay; conditions: concentration not given here
[22] = target: Mitogen-activated protein kinase 1 (Homo sapiens) (UniProt P28482); test: Inhibition of human recombinant MAPK1 in presence of ATP by Z-lyte kinase assay; conditions: concentration not given here
[23] = target: Cyclin-G-associated kinase (Homo sapiens) (UniProt O14976); test: Inhibition of human recombinant GAK by Lanthascreen assay; conditions: concentration not given here
[24] = Thiol reactivity of the compound with tri-butylphosphine by HPLC analysis; format: physicochemical
[25] = target: T1, Glycogen synthase kinase-3 beta; test: Reversible inhibition of recombinant human GSK-3beta at 70 uM preincubated for 3 hrs followed by diluted with substrate and ATP master mix solution measured upto 1.5 hrs by jump dilution assays relative to control; conditions: time 4.5 hrs
[26] = target: Vascular endothelial growth factor receptor 3 (Homo sapiens) (UniProt P35916); test: Inhibition of human recombinant FLT4 in presence of ATP by Z-lyte kinase assay; conditions: concentration not given here
[27] = target: Dual specificity mitogen-activated protein kinase kinase 1 (Homo sapiens) (UniProt Q02750); test: Inhibition of human recombinant MAP2K1 by Lanthascreen assay; conditions: concentration not given here
Sequence of Dual specificity mitogen-activated protein kinase kinase 1 (Homo sapiens) (Q02750 whole entry): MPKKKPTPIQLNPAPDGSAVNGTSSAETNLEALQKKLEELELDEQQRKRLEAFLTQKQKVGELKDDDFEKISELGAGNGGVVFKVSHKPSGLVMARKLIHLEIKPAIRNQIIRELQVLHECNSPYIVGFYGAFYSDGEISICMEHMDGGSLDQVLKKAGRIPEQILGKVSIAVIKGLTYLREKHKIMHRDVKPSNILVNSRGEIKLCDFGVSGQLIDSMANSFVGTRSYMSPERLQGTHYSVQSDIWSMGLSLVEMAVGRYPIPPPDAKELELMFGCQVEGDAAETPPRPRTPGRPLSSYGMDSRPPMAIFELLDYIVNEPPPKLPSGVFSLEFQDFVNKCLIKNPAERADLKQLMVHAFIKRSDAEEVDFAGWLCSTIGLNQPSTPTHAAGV

[28] = target: Glycogen synthase kinase-3 alpha (Homo sapiens) (UniProt P49840); test: Inhibition of human recombinant GSK3A in presence of ATP by Z-lyte kinase assay; conditions: concentration not given here
[29] = target: T1, Glycogen synthase kinase-3 beta; test: Inhibition of human GSK-3beta incubated with substrate in presence of ATP measured by serial dilution assay
Target sequence in this assay (P49841 whole entry): as the sequence (P49841 whole entry, looked up) above

[30] = target: Glycogen synthase kinase-3 beta (Homo sapiens, UniProt P49841, C199A); test: Inhibition of human GSK-3beta C199A mutant incubated with substrate in presence of ATP measured by serial dilution assay
[31] = target: Mitogen-activated protein kinase kinase kinase 20 (Homo sapiens) (UniProt Q9NYL2); test: Inhibition of human recombinant ZAK by Lanthascreen assay; conditions: concentration not given here
[32] = target: T1, Glycogen synthase kinase-3 beta; conditions: dose 100.0 nM
[33] = target: Cyclin-dependent kinase-like 5 (Homo sapiens) (UniProt O76039); test: Inhibition of human recombinant CDKL5 in presence of ATP by Z-lyte kinase assay; conditions: concentration not given here
[34] = target: Dual specificity mitogen-activated protein kinase kinase 1 (Homo sapiens) (UniProt Q02750); test: Inhibition of human recombinant MAP2K1 in presence of ATP by Z-lyte kinase assay; conditions: concentration not given here
[35] = target: Dual specificity mitogen-activated protein kinase kinase 5 (Homo sapiens) (UniProt Q13163); test: Inhibition of human recombinant MAP2K5 by Lanthascreen assay; conditions: concentration not given here
[36] = target: Mitogen-activated protein kinase kinase kinase 7 (Homo sapiens) (UniProt O43318); test: Inhibition of human recombinant MAP3K7 by Lanthascreen assay; conditions: concentration not given here
[37] = target: Dual specificity mitogen-activated protein kinase kinase 2 (Homo sapiens) (UniProt P36507); test: Inhibition of human recombinant MAP2K2 by Lanthascreen assay; conditions: concentration not given here
[38] = target: Platelet-derived growth factor receptor alpha (Homo sapiens) (UniProt P16234); test: Inhibition of human recombinant PDGFRA in presence of ATP by Z-lyte kinase assay; conditions: concentration not given here
[39] = target: Dual specificity mitogen-activated protein kinase kinase 4 (Homo sapiens) (UniProt P45985); test: Inhibition of human recombinant MAP2K4 by Lanthascreen assay; conditions: concentration not given here
[40] = target: TGF-beta receptor type-2 (Homo sapiens) (UniProt P37173); test: Inhibition of human recombinant TGFBR2 by Lanthascreen assay; conditions: concentration not given here
Sequence of TGF-beta receptor type-2 (Homo sapiens) (P37173 whole entry): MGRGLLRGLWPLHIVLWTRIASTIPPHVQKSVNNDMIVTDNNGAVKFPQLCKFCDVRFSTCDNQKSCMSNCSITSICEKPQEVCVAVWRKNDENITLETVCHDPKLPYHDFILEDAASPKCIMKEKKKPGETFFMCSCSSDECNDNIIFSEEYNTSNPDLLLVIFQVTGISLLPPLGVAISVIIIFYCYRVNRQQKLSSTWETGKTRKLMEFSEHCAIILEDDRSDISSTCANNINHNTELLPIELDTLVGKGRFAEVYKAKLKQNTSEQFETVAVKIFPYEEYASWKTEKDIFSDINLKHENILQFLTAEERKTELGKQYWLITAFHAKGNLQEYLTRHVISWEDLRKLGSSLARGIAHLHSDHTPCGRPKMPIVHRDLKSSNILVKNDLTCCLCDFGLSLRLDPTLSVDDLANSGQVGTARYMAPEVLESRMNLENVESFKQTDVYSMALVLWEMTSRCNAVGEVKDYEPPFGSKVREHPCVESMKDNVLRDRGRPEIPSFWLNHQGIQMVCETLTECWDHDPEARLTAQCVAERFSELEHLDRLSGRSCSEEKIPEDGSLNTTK

[41] = target: Serine/threonine-protein kinase NLK (Homo sapiens) (UniProt Q9UBE8); test: Inhibition of human recombinant NLK by Lanthascreen assay; conditions: concentration not given here
[42] = Thiol reactivity of the compound with ethanethiol DTT by HPLC analysis; format: physicochemical
[43] = target: Vascular endothelial growth factor receptor 1 (Homo sapiens) (UniProt P17948); test: Inhibition of human recombinant FLT1 in presence of ATP by Z-lyte kinase assay; conditions: concentration not given here
Sequence of Vascular endothelial growth factor receptor 1 (Homo sapiens) (P17948 whole entry): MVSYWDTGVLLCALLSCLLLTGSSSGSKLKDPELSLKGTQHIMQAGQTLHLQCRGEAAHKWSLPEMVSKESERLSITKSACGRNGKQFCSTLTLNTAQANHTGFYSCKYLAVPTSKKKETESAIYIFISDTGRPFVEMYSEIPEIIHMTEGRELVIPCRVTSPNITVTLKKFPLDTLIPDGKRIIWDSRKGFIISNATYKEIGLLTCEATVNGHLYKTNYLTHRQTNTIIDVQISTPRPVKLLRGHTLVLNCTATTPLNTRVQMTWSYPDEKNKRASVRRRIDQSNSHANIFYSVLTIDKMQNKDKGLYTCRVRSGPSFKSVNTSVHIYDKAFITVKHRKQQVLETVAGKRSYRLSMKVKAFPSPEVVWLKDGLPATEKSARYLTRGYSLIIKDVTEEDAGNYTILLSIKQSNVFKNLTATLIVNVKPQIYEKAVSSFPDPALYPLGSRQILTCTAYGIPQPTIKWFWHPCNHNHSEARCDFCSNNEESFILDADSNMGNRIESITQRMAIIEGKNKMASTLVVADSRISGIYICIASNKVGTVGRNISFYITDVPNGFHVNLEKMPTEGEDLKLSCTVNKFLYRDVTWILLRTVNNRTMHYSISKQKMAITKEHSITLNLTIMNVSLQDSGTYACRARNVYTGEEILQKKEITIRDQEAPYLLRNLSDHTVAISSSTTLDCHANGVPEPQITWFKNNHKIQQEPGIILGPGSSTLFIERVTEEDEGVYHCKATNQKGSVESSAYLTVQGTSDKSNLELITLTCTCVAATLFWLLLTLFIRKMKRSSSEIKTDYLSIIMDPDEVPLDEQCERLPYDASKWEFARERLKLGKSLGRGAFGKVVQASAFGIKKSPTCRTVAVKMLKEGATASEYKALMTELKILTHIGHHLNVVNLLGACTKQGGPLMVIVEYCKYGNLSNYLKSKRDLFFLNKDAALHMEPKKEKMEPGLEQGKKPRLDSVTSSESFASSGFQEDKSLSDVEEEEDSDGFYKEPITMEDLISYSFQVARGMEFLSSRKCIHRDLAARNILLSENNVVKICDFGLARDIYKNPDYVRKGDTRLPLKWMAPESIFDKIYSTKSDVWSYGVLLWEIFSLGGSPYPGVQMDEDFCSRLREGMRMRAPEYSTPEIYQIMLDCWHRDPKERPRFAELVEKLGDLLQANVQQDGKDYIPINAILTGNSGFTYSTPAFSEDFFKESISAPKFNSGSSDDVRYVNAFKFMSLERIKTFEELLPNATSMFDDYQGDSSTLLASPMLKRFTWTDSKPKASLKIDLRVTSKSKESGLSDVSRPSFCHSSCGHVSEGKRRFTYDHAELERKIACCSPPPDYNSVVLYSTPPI

[44] = target: T1, Glycogen synthase kinase-3 beta; test: Reversible inhibition of recombinant human GSK-3beta at 10 uM preincubated for 3 hrs followed by diluted with substrate and ATP master mix solution measured first 30 mins by jump dilution assays; conditions: time 3.5 hrs
[45] = target: Serine/threonine-protein kinase D3 (Homo sapiens) (UniProt O94806); test: Inhibition of human recombinant PKD3 in presence of ATP by Z-lyte kinase assay; conditions: concentration not given here
[46] = target: Receptor-type tyrosine-protein kinase FLT3 (Homo sapiens) (UniProt P36888); test: Inhibition of human recombinant FLT3 in presence of ATP by Z-lyte kinase assay; conditions: concentration not given here
[47] = target: Ribosomal protein S6 kinase alpha-2 (Homo sapiens) (UniProt Q15349); test: Inhibition of human recombinant RSK3 in presence of ATP by Z-lyte kinase assay; conditions: concentration not given here

In the case of `O=C1Cc2c([nH]c3ccc([N+](=O)[O-])cc23)-c2ccccc2N1`, the inhibition [1] is reported as “Active”.

In the case of `OC1(c2ccccc2)CSC(=S)N1Cc1ccncc1` (configuration not stated), the inhibition [2] is reported as 7%, the inhibition [3] is reported as 11% and the inhibition [4] is reported as 89%. For the same molecule, the inhibition [5] was 11%, the inhibition [6] was 26% and the inhibition [7] was “inactive”. For the same molecule, the inhibition [8] was 4%, the inhibition [9] was “inactive” and the inhibition [10] was 60%. The inhibition [11] was “Tde”, the IC50 [12] was 102 nM and the inhibition [13] was -2%. For the same molecule, the inhibition [14] was 1%, the inhibition [15] was 11% and the inhibition [16] was “Tde”. For the same molecule, the inhibition [17] was 26%, the inhibition [18] was 18% and the inhibition [19] was 7%. For the same molecule, the inhibition [20] was -2%, the inhibition [21] was 6% and the inhibition [22] was 29%. For the same molecule, the inhibition [23] was 24%, the Drug metabolism [24] was “Metabolite_Notdetected” and the inhibition [25] was “Active”. For the same molecule, the inhibition [26] was 1.9%, the inhibition [27] was 5% and the inhibition [28] was 91%. For the same molecule, the IC50 [29] was 370 nM, the IC50 [30] was 121000 nM and the inhibition [31] was 9%. The inhibition [32] was “inactive”, the inhibition [33] was 3.2% and the inhibition [34] was 6%. For the same molecule, the inhibition [35] was 1%, the inhibition [36] was 21% and the inhibition [37] was 4%. The inhibition [38] was -2%, the inhibition [39] was 12% and the inhibition [40] was 20%. The inhibition [41] was 24%, the Drug metabolism [42] was “Metabolite_Notdetected” and the inhibition [43] was 0%. The inhibition [44] was “Active”, the inhibition [45] was 10% and the inhibition [46] was 2%. For the same molecule, the inhibition [47] was 9%.

For `COc1cc(O)c2c(c1)[C@H]1O[C@@H]1C[C@H](O)[C@H](O)C(=O)/C=C\C[C@H](C)OC2=O` [HYPOTHEMYCIN], the inhibition [7] was “inactive”, the inhibition [9] was “inactive” and the IC50 [12] was 663 nM. For the same molecule, the IC50 [29] was 11300 nM and the inhibition [32] was “inactive”.
